{"source": "patent US6845777B2", "about": "“Composition to reduce or quit smoking addiction” (priority 2001, dated 2005)", "origin": "cited, not measured here", "key": {"[1]": {"details": "average adult"}}, "data": [{"smiles": "CN1CCCC1c1cccnc1", "note": "(centres unmarked) [Nicotine]", "values": [{"measurement": "lethal unit dose", "setting": "[1]", "value": "about 60 mg"}, {"measurement": "nicotine from the intestine that reaches the bloodstream in a not metabolized form", "setting": "in vivo", "value": "about 30%"}, {"measurement": "peak levels in the arteries", "setting": "in vivo", "value": "approximately 40 micro-grams per milliliter of blood"}, {"measurement": "plasma half-life", "setting": "in vivo", "value": "0.5 h and 2 h"}, {"measurement": "nicotine inhaled from a cigarette that is absorbed into the bloodstream", "setting": "inhalation of tobacco smoke", "value": "≤ 90", "unit": "%"}]}]}
